Laboratory results: publication PMC4140855, “Production of an Attenuated Phenol-Soluble Modulin Variant Unique to the MRSA Clonal Complex 30 Increases Severity of Bloodstream Infection” (PLoS Pathogens, 2014)

Key:
FPR1 = target: T1, FPR1 (Homo sapiens, UniProt P21462); assay: Ca2+ flux in HL60 cells stably transfected with FPR1; assay type: cell-based
T1 construct: expressed in transfected cells; host or cells: HL60 cells, stably transfected
T1 sequence (P21462 1-350): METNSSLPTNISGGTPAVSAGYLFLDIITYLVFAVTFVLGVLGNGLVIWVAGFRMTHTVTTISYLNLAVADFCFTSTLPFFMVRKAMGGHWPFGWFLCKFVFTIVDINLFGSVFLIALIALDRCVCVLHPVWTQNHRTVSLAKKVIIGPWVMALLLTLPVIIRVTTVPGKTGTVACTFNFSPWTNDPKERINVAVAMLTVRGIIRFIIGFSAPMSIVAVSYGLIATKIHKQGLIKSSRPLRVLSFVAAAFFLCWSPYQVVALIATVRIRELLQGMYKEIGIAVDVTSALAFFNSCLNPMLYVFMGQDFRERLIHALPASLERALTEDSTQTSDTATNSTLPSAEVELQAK
Description: (§1) Next, we analyzed Ca^2+ flux as a general measure to test for neutrophil activation, as used in previous studies. HL60 cells stably transfected with different FPR receptor genes were used to determine which FPR receptors are differentially activated by PSMα3 versus PSMα3N22Y (Fig. 4A). […] At a peptide concentration of 100 nM, we observed a difference of ∼factor 2 in chemotactic activity comparing the two peptides when FPR1 recognition was inhibited by CHIPS, likely attributable to FPR2-mediated recognition. Owing to the overall ∼10 times lower capacity to stimulate FPR receptors other than FPR2, we observed no chemotaxis at that peptide concentration with addition of the FPR2 blocking agent FLIPr.
(A) Differential activation of FPRs by PSMα3 versus PSMα3N22Y was measured using synthetic peptides and Ca^2+ flux observed in HL60 cells stably transfected with the corresponding FPR genes as readout, using three biological and two technical replicates. The calculated Kd values are shown on the right. […] (B) Ca^2+ flux in human neutrophils upon addition of PSMα3 or PSMα3N22Y and inhibition by FLIPr (FPR2 inhibitor) or CHIPS (FPR1 inhibitor). […]
Human neutrophils were isolated from venous blood of healthy donors as described, [39]. Neutrophil chemotaxis and Ca^2+ flux were determined as previously described, [24]. […] Chemotaxis of neutrophils was determined using a transwell system (Costar) with analysis of neutrophil migration using fluorescence labeling. Calcium fluxes were monitored as a surrogate marker for chemotaxis since it can be measured more robustly and accurately than chemotaxis. For measurement of Ca^2+ fluxes, 5×10^6 neutrophils/ml were labeled with a fluorescent dye and analyzed with a FACScalibur (Becton Dickinson) as described. […] Measurements of 2,000 events were performed and Ca^2+ flux was expressed as relative fluorescence corrected for buffer controls. […] At the desired times, PMN lysis was determined by release of lactate dehydrogenase (LDH) (Cytotoxicity Detection Kit, Roche Applied Sciences).

abscess or lesion = assay: Mouse model of skin infection (abscess sizes); assay type: in vivo; settings: Crl∶SKH1-hrBR mice, subcutaneous, 14 d; expressed in strains MRSA252 and 22030
Description: The mouse skin infection model was performed as described. Briefly, six to eight week-old female Crl∶SKH1-hrBR hairless mice (Charles River Laboratories) were injected subcutaneously with ∼4×10^7 CFU of S. aureus strains 252 or 252*, or ∼5×10^6 CFU of S. aureus strains 22030 or 22030* in 50 µl of PBS in the left flank of the mouse. The length (L) and width (W) of the abscess or lesion caused by the bacterial infection was measured with an electronic caliper daily for 14 d post infection and calculated using the formula L×W. Typically, strain MRSA252 caused closed abscesses and strain 22030 open lesions. All animals were euthanized after completion of the entire procedure. All mouse experiments were performed blinded at the animal care facility of the NIAID, Building 33, in compliance with the guidelines of the NIAID/NIH Institutional Animal Care and Use Committee.
Supplementary file ppat.1004298.s002.tif: Figure S2 Mouse model of skin infection. […] The length (L) and width (W) of the abscess or lesion caused by the bacterial infection was measured with an electronic caliper daily for 14 d post infection and calculated using the formula L×W. Typically, strain MRSA 252 caused closed abscesses and strain 22030 open lesions. […]

human neutrophils = assay: Human neutrophil chemotaxis / Ca2+ flux with FPR1 inhibited by CHIPS; assay type: cell-based; settings: peptide 100 nM; CHIPS 1.4 µg/ml, 20 min pre-incubation at room temperature; three donors, quadruplicate
Description: as §1, with “Owing to the overall ∼10 times lower capacity to stimulate FPR receptors other than FPR2, we observed no chemotaxis at that peptide concentration with addition of the FPR2 blocking agent FLIPr.” left out
(A) Differential activation of FPRs by PSMα3 versus PSMα3N22Y was measured using synthetic peptides and Ca^2+ flux observed in HL60 cells stably transfected with the corresponding FPR genes as readout, using three biological and two technical replicates. The calculated Kd values are shown on the right. […]
Human neutrophils were isolated from venous blood of healthy donors as described, [39]. Neutrophil chemotaxis and Ca^2+ flux were determined as previously described, [24]. […] Chemotaxis of neutrophils was determined using a transwell system (Costar) with analysis of neutrophil migration using fluorescence labeling. Calcium fluxes were monitored as a surrogate marker for chemotaxis since it can be measured more robustly and accurately than chemotaxis. […] Measurements of 2,000 events were performed and Ca^2+ flux was expressed as relative fluorescence corrected for buffer controls. […]

Row | SMILES | Differential activation of FPR receptors by the two peptides (FPR1; Ca2+ flux, transfected HL60 cells, not FPR2 and FPR3) | Kd (FPR1; one site-binding model from Ca2+ flux, synthetic peptides, FPR1-transfected HL60 cells, three biological and two technical replicates, error = standard deviation) [µM] | Factor of difference in FPR1 Kd, PSMα3 versus PSMα3N22Y (FPR1; significant difference) | Virulence in skin infections as measured by abscess sizes (abscess or lesion) | Factor of difference in chemotactic activity between the two peptides, FPR1 inhibited by CHIPS (human neutrophils)
1 | CSCC[C@H](NC=O)C(=O)N[C@@H](CCC(=O)O)C(=O)N[C@@H](Cc1ccccc1)C(=O)N[C@H](C(=O)N[C@@H](C)C(=O)N[C@@H](CCCCN)C(=O)N[C@@H](CC(C)C)C(=O)N[C@@H](Cc1ccccc1)C(=O)N[C@@H](CCCCN)C(=O)N[C@@H](Cc1ccccc1)C(=O)N[C@@H](Cc1ccccc1)C(=O)N[C@@H](CCCCN)C(=O)N[C@@H](CC(=O)O)C(=O)N[C@@H](CC(C)C)C(=O)N[C@@H](CC(C)C)C(=O)NCC(=O)N[C@@H](CCCCN)C(=O)N[C@@H](Cc1ccccc1)C(=O)N[C@@H](CC(C)C)C(=O)NCC(=O)N[C@@H](CC(N)=O)C(=O)N[C@@H](Cc1ccc(O)cc1)C(=O)O)C(C)C [PSMα3N22Y] | only FPR1 was activated differentially | 3.04 ± 0.682 | ~5 | did not cause increased virulence in skin infections | –
2 | CSCC[C@H](NC=O)C(=O)N[C@@H](CCC(=O)O)C(=O)N[C@@H](Cc1ccccc1)C(=O)N[C@H](C(=O)N[C@@H](C)C(=O)N[C@@H](CCCCN)C(=O)N[C@@H](CC(C)C)C(=O)N[C@@H](Cc1ccccc1)C(=O)N[C@@H](CCCCN)C(=O)N[C@@H](Cc1ccccc1)C(=O)N[C@@H](Cc1ccccc1)C(=O)N[C@@H](CCCCN)C(=O)N[C@@H](CC(=O)O)C(=O)N[C@@H](CC(C)C)C(=O)N[C@@H](CC(C)C)C(=O)NCC(=O)N[C@@H](CCCCN)C(=O)N[C@@H](Cc1ccccc1)C(=O)N[C@@H](CC(C)C)C(=O)NCC(=O)N[C@@H](CC(N)=O)C(=O)N[C@@H](CC(N)=O)C(=O)O)C(C)C [PSMα3] | – | – | – | – | ~2
